{
  "source": "patent US20040156782A1",
  "about": "“Methods of using indocyanine green (ICG) dye” (Akorn, Inc., priority 2003, published 2004)",
  "experiment": "HPLC stability of reconstituted aqueous ICG composition (% label claim over time)",
  "format": "physicochemical",
  "procedure": "The HPLC testing utilized a Supelcosil LC-18-DB, 3 μm, 4.6×150 mm HPLC column and a supelcosil LC-18-DB, 3 μm, 4.6×33 mm guard column. The mobile phase, which consists of 0.1% phosphoric acid (Solvent A) and 100% acetonitrile (Solvent B), was fed to the columns at a flow rate of 1 ml/min, with the mobile phase composition being varied as follows:\nAn ICG standard was then prepared by dissolving approximately 5.5 mg of ICG (IC-GREEN™) in 10.0 ml of a diluent comprising acetonitrile and water in a 1:1 ratio. The ICG samples to be measured (IC-GREEN™) were then prepared by diluting each sample in the same diluent (1:1 acetonitrile to water) such that the estimated concentration of ICG in each sample was approximately 0.5 mg/ml. The dilution factor was determined by dividing the final volume of the sample by the volume of the ICG sample aliquot initially added. Then, five 10.0 μL quantities of the ICG standard were injected into the HPLC column and the mean peak area was determined. Next, a series of 10.0 μL injections of the samples was completed, and the mean peak area for each sample was determined. The ICG concentration for each sample was then calculated using the following formula:\n[ICG in mg/ml]=[STD](ASX/ASTD)(DF)\nwhere [STD] is the ICG concentration of the standard, ASX is the mean peak area of the sample, ASTD is the mean peak area of the standard, and DF is the dilution factor. The relative concentration of ICG present in the sample (wt. % label claim) was then determined by dividing the concentration of the sample by the initial concentration upon dissolution, then multiplying the result by one hundred.",
  "data": [
    {"smiles": "CC1(C)C(/C=C/C=C/C=C/C=C2\\N(CCCCS(=O)(=O)O)c3ccc4ccccc4c3C2(C)C)=[N+](CCCCS(=O)(=O)[O-])c2ccc3ccccc3c21", "note": "[ICG, Indocyanine green]", "values": [
      {"measurement": "stability of aqueous compositions having relatively high ICG concentrations relative to relatively low ICG concentrations", "result": "more stable"},
      {"measurement": "time after reconstitution at which ICG content corresponds to 95 wt. % based on the label claim", "setting": "5 mg/ml reconstituted aqueous ICG composition", "result": "about 18 hours"},
      {"measurement": "relative concentration (% label claim) of ICG in aqueous ICG composition", "setting": "for more than ten hours after the lyophilized ICG is reconstituted", "result": "above 90 wt. %"}
    ]}
  ]
}
